Assay results published in PMC8776995 (Frontiers in Chemistry, 2022).
Where “and” joins values, the source holds several entries; their conditions need not be identical. Identical values can stand only once.

Legend:
[1] = Body mass of PC-9 tumor-bearing NSG mice after treatment; conditions: for Change in body weight: individual animals
Experimental: PC-9 xenografts were established by subcutaneous transplantation of cancer cells into the flanks of NSG mice (male, 4–6-week old). […] Tumor volumes were measured using calipers and calculated with the formula: V = length × width^2/2. The mouse body mass was recorded as well. 19 days after inoculation, the mice were sacrificed and the tumors were harvested and weighed.

H460 cells = assay: Annexin V/PI flow cytometry for cell apoptosis, H460; assay type: cell-based, human; conditions: for Percentage of apoptosis, Average: average of three runs; for Q2+Q3 / Lymphocytes/Q2: FITC-A+ , PI-A+ Freq. of Parent / Lymphocytes/Q3: FITC-A+ , PI-A- Freq. of Parent / Percentage of apoptosis: single runs; for Q2+Q3: given as fraction; for Lymphocytes/Q2: FITC-A+ , PI-A+ Freq. of Parent / Lymphocytes/Q3: FITC-A+ , PI-A- Freq. of Parent / Percentage of apoptosis: time as in file name (24h, 48h or not given); for cell apoptosis (flow cytometry): H460, 4, 8 and 12 μM, 48 h
Experimental: To establish whether the antiproliferative efficacy is associated with apoptosis, PC-9 and H460 cells were treated with compound e4 or e12 of various concentrations (4, 8 and 12 μM) for 48 h, and then assessed with flow cytometry.
Cell-apoptosis analysis was carried out by flow cytometry using the Annexin V/PI apoptosis kit according to the manufacturer’s manual. Briefly, PC-9 or H460 (3 × 10^4–5 × 10^4/well) cells were seeded in 12-well plates for 24 h, and then treated with 0.1% DMSO (as control) or various concentrations of compound e4 or e12 for 48 h, respectively. Cells were harvested, washed with PBS, and then incubated with 100ul of 1X Annexin V binding buffer containing 1 μl PI and 1 μl FITC Annexin V for 15 min at RT in the dark. 200 µl of 1X binding buffer were added to each tube for flow cytometry analysis (BD LSRFortessa™ Flow Cytometer). The percentages of apoptotic cells were analyzed using FlowJo soft.

PC-9 xenograft = assay: In vivo antitumor activity, PC-9 xenograft in NSG mice; set-up: species or system mouse
Experimental: The mouse body mass was recorded as well.

## COCCOc1cc2ncnc(Nc3cccc(-c4cn(Cc5cc(Br)cc(Br)c5)nn4)c3)c2cc1OCCOC [e4, [6,7-Bis-(2-methoxy-ethoxy)-quinazolin-4-yl]-{3-[1-(3,5-dibromo-benzyl)-1H-[1,2,3]triazol-4-yl]-phenyl}-amine]
[1]; Day13, individual animals
  Body weigh: 27 g and 25.6 g and 24.1 g and 27.3 g and 28.8 g
[1]; Day15, individual animals
  Body weigh: 25.7 g and 26.2 g and 25.9 g and 27.3 g and 29 g
[1]; Day15 vs previous weighing
  Change in body weight: -4.815% and 2.344% and 7.469% and 0% and 0.6944%
[1]; Day17, individual animals
  Body weigh: 26 g and 23.9 g and 26.1 g and 27.3 g and 29.1 g
[1]; Day17 vs previous weighing
  Change in body weight: 1.167% and -8.779% and 0.7722% and 0% and 0.3448%
[1]; Day19, individual animals
  Body weigh: 25.9 g and 26 g and 26.2 g and 27.1 g and 29.1 g
[1]; Day19 vs previous weighing
  Change in body weight: -0.3846% and 8.787% and 0.3831% and -0.7326% and 0%
H460 cells; H460, 4uM
  Percentage of apoptosis, Average: 9.783%
  Q2+Q3: 0.1032 and 0.0852 and 0.1051
  Lymphocytes/Q2: FITC-A+ , PI-A+ Freq. of Parent: 5.85% and 4.70% and 6.80%
  Lymphocytes/Q3: FITC-A+ , PI-A- Freq. of Parent: 4.47% and 3.82% and 3.71%
  Percentage of apoptosis: 10.32% and 8.52% and 10.51%
H460 cells; H460, 8uM
  Percentage of apoptosis, Average: 47.9767%
  Q2+Q3: 0.4733 and 0.459 and 0.507
  Lymphocytes/Q2: FITC-A+ , PI-A+ Freq. of Parent: 41.3% and 35.4% and 44.0%
  Lymphocytes/Q3: FITC-A+ , PI-A- Freq. of Parent: 6.03% and 10.5% and 6.70%
  Percentage of apoptosis: 47.33% and 45.9% and 50.7%
H460 cells; H460, 12uM
  Percentage of apoptosis, Average: 72.3733%
  Q2+Q3: 0.7923 and 0.7087 and 0.6702
  Lymphocytes/Q2: FITC-A+ , PI-A+ Freq. of Parent: 74.3% and 67.3% and 60.8%
  Lymphocytes/Q3: FITC-A+ , PI-A- Freq. of Parent: 4.93% and 3.57% and 6.22%
  Percentage of apoptosis: 79.23% and 70.87% and 67.02%
H460 cells
  cell apoptosis (flow cytometry): significant cell apoptosis
PC-9 xenograft; Day13, group mean
  tumor volume mean: 63.4029 mm3
PC-9 xenograft; Day13, individual animals
  tumor length: 5.08 mm and 6.5 mm and 4.8 mm and 6.3 mm and 6.04 mm and 5.8 mm and 7.4 mm and 6.1 mm
  tumor volume: 59.9938 mm3 and 60.0925 mm3 and 44.376 mm3 and 55.566 mm3 and 68.426 mm3 and 38.5875 mm3 and 71.3446 mm3 and 78.292 mm3 and 93.9476 mm3
  tumor width: 4.86 mm and 4.3 mm and 4.2 mm and 4.76 mm and 3.5 mm and 4.96 mm and 4.6 mm and 5.55 mm
PC-9 xenograft; Day15, group mean
  tumor volume mean: 44.2866 mm3
PC-9 xenograft; Day15, individual animals
  tumor length: 3.97 mm and 5.56 mm and 5.73 mm and 4.91 mm and 4.11 mm and 5.48 mm and 4.95 mm and 6.93 mm and 5.72 mm
  tumor volume: 23.9012 mm3 and 57.8062 mm3 and 55.2146 mm3 and 35.078 mm3 and 33.0446 mm3 and 32.9921 mm3 and 21.979 mm3 and 91.1881 mm3 and 47.3756 mm3
  tumor width: 3.47 mm and 4.56 mm and 4.39 mm and 3.78 mm and 4.01 mm and 2.98 mm and 5.13 mm and 4.07 mm
PC-9 xenograft; Day17, group mean
  tumor volume mean: 35.7355 mm3
PC-9 xenograft; Day17, individual animals
  tumor length: 3.7 mm and 7.6 mm and 4.76 mm and 5.8 mm and 4.94 mm and 4.9 mm and 5.1 mm and 4.6 mm
  tumor volume: 17.7785 mm3 and 54.872 mm3 and 38.4618 mm3 and 25.4086 mm3 and 28.0515 mm3 and 47.432 mm3 and 38.7855 mm3 and 30.2575 mm3 and 40.572 mm3
  tumor width: 3.1 mm and 3.8 mm and 4.02 mm and 2.96 mm and 3.37 mm and 4.4 mm and 3.9 mm and 3.5 mm and 4.2 mm
PC-9 xenograft; Day19, group mean
  tumor volume mean: 22.669 mm3
PC-9 xenograft; Day19, individual animals
  Tumor weight: 0.07 g and 0.02 g and 0.04 g and 0.03 g
  tumor length: 4.55 mm and 5.74 mm and 3.59 mm and 2.83 mm and 2.52 mm and 3 mm and 4.51 mm and 5.54 mm and 4.24 mm
  tumor volume: 7.871 mm3 and 60.7292 mm3 and 20.5068 mm3 and 2.813 mm3 and 5.663 mm3 and 9.6774 mm3 and 39.0241 mm3 and 23.1353 mm3 and 34.6018 mm3
  tumor width: 1.86 mm and 4.6 mm and 3.38 mm and 1.41 mm and 2.12 mm and 2.54 mm and 4.16 mm and 2.89 mm and 4.04 mm

## COCCOc1cc2ncnc(Nc3cccc(-c4cn(-c5ccc(C)cc5)nn4)c3)c2cc1OCCOC [e12, [6,7-Bis-(2-methoxy-ethoxy)-quinazolin-4-yl]-[3-(1-p-tolyl-1H-[1,2,3]triazol-4-yl)-phenyl]-amine]
other
  melting point: 95 to 98 °C
H460 cells; H460, 4uM
  Percentage of apoptosis, Average: 14.68%
  Q2+Q3: 0.149
  Lymphocytes/Q2: FITC-A+ , PI-A+ Freq. of Parent: 8.07% and 10.30% and 7.57%
  Lymphocytes/Q3: FITC-A+ , PI-A- Freq. of Parent: 6.83% and 3.75% and 7.52%
  Percentage of apoptosis: 14.9% and 14.05% and 15.09%
H460 cells; H460, 8uM
  Percentage of apoptosis, Average: 16.0567%
  Q2+Q3: 0.1436
  Lymphocytes/Q2: FITC-A+ , PI-A+ Freq. of Parent: 7.09% and 10.30% and 10.90%
  Lymphocytes/Q3: FITC-A+ , PI-A- Freq. of Parent: 7.27% and 6.59% and 6.02%
  Percentage of apoptosis: 14.36% and 16.89% and 16.92%
H460 cells; H460, 12uM
  Percentage of apoptosis, Average: 28.7833%
  Q2+Q3: 0.213
  Lymphocytes/Q3: FITC-A+ , PI-A- Freq. of Parent: 10.9% and 9.22% and 9.03%
  Percentage of apoptosis: 21.3% and 31.62% and 33.43%
H460 cells
  cell apoptosis (flow cytometry): significant cell apoptosis
